# Assay results reported in PubChem BioAssay (NCI).
#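 Cultured in 96-well plates, cells were exposed to test compound for 48 hours across five concentrations. GI50 = concentration required for 50% inhibition of growth. Definition used: TGI = concentration required for complete inhibition of growth.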
# Legend:
# Experiment in all cases: growth of human tumour cells (NCI), 48 h
# [1] = tested on: 786-0 renal
# [2] = tested on: A498 renal
# [3] = tested on: A549 NSCLC
# [4] = tested on: ACHN renal
# [5] = tested on: BT-549 breast
# [6] = tested on: CAKI-1 renal
# [7] = tested on: CCRF-CEM leukemia
# [8] = tested on: COLO 205 colon
# [9] = tested on: DU-145 prostate
# [10] = tested on: EKVX NSCLC
# [11] = tested on: HCC-2998 colon
# [12] = tested on: HCT-116 colon
# [13] = tested on: HCT-15 colon
# [14] = tested on: HL-60(TB) leukemia
# [15] = tested on: HOP-62 NSCLC
# [16] = tested on: HOP-92 NSCLC
# [17] = tested on: HS 578T breast
# [18] = tested on: HT29 colon
# [19] = tested on: IGROV1 ovarian
# [20] = tested on: K-562 leukemia
# [21] = tested on: KM12 colon
# [22] = tested on: LOX IMVI melanoma
# [23] = tested on: M14 melanoma
# [24] = tested on: MALME-3M melanoma
# [25] = tested on: MCF7 breast
# [26] = tested on: MDA-MB-231 breast
# [27] = tested on: MDA-MB-435
# [28] = tested on: MOLT-4 leukemia
# [29] = tested on: NCI-H226 lung
# [30] = tested on: NCI-H23 lung
# [31] = tested on: NCI-H460 lung
# [32] = tested on: NCI-H522 lung
# [33] = tested on: NCI/ADR-RES ovarian
# [34] = tested on: OVCAR-3 ovarian
# [35] = tested on: OVCAR-4 ovarian
# [36] = tested on: OVCAR-5 ovarian
# [37] = tested on: OVCAR-8 ovarian
# [38] = tested on: PC-3 prostate
# [39] = tested on: RPMI-8226 leukemia
# [40] = tested on: RXF 393 renal
# [41] = tested on: SF-268 CNS
# [42] = tested on: SF-295 CNS
# [43] = tested on: SF-539 CNS
# [44] = tested on: SK-MEL-2 melanoma
# [45] = tested on: SK-MEL-28 melanoma
# [46] = tested on: SK-MEL-5 melanoma
# [47] = tested on: SK-OV-3 ovarian
# [48] = tested on: SN12C renal
# [49] = tested on: SNB-19 CNS
# [50] = tested on: SNB-75 CNS
# [51] = tested on: SR leukemia
# [52] = tested on: SW-620 colon
# [53] = tested on: T-47D breast
# [54] = tested on: TK-10 renal
# [55] = tested on: U251 CNS
# [56] = tested on: UACC-257 melanoma
# [57] = tested on: UACC-62 melanoma
# [58] = tested on: UO-31 renal
# [59] = tested on: MDA-N
smiles,measurement,setting,value
Cc1c2cnccc2c(C)c2c1c1cc(C3OCCCO3)ccc1n2C,GI50,[1],0.457 µM
same,TGI,[1],3.25 µM
same,GI50,[2],0.139 µM
same,TGI,[2],0.52 µM
same,GI50,[3],0.461 µM
same,TGI,[3],2.5 µM
same,GI50,[4],0.318 µM
same,TGI,[4],2.04 µM
same,GI50,[5],0.52 µM
same,TGI,[5],2.11 µM
same,GI50,[6],0.314 µM
same,TGI,[6],3.45 µM
same,GI50,[7],0.291 µM
same,TGI,[7],3.81 µM
same,GI50,[8],0.357 µM
same,TGI,[8],1.75 µM
same,GI50,[9],0.371 µM
same,TGI,[9],1.58 µM
same,GI50,[10],0.451 µM
same,TGI,[10],2.56 µM
same,GI50,[11],0.659 µM
same,TGI,[11],2.94 µM
same,GI50,[12],0.0472 µM
same,TGI,[12],1.05 µM
same,GI50,[13],0.281 µM
same,TGI,[13],1.4 µM
same,GI50,[14],0.375 µM
same,TGI,[14],1.77 µM
same,GI50,[15],0.286 µM
same,TGI,[15],1.82 µM
same,GI50,[16],0.281 µM
same,TGI,[16],1.66 µM
same,GI50,[17],0.416 µM
same,TGI,[17],2.83 µM
same,GI50,[18],0.363 µM
same,TGI,[18],2.12 µM
same,GI50,[19],0.337 µM
same,TGI,[19],2.37 µM
same,GI50,[20],0.418 µM
same,TGI,[20],2.69 µM
same,GI50,[21],0.5 µM
same,TGI,[21],3.77 µM
same,GI50,[22],0.146 µM
same,TGI,[22],0.659 µM
same,GI50,[23],0.317 µM
same,TGI,[23],1.16 µM
same,GI50,[24],0.29 µM
same,TGI,[24],1.12 µM
same,GI50,[25],0.255 µM
same,TGI,[25],1.35 µM
same,GI50,[26],0.322 µM
same,TGI,[26],1.8 µM
same,GI50,[27],0.411 µM
same,TGI,[27],1.55 µM
same,GI50,[28],0.332 µM
same,TGI,[28],1.74 µM
same,GI50,[29],0.213 µM
same,TGI,[29],0.962 µM
same,GI50,[30],0.215 µM
same,TGI,[30],1.21 µM
same,GI50,[31],0.293 µM
same,TGI,[31],1.15 µM
same,GI50,[32],0.466 µM
same,TGI,[32],2.48 µM
same,GI50,[33],0.157 µM
same,TGI,[33],1.83 µM
same,GI50,[34],0.419 µM
same,TGI,[34],2 µM
same,GI50,[35],0.264 µM
same,TGI,[35],1.12 µM
same,GI50,[36],0.436 µM
same,TGI,[36],3.7 µM
same,GI50,[37],0.139 µM
same,TGI,[37],1.95 µM
same,GI50,[38],0.402 µM
same,TGI,[38],2.24 µM
same,GI50,[39],0.282 µM
same,TGI,[39],1.28 µM
same,GI50,[40],0.172 µM
same,TGI,[40],0.921 µM
same,GI50,[41],0.268 µM
same,TGI,[41],1.71 µM
same,GI50,[42],0.348 µM
same,TGI,[42],1.9 µM
same,GI50,[43],0.272 µM
same,TGI,[43],1.32 µM
same,GI50,[44],0.314 µM
same,TGI,[44],1.22 µM
same,GI50,[45],0.459 µM
same,TGI,[45],1.68 µM
same,GI50,[46],0.379 µM
same,TGI,[46],1.44 µM
same,GI50,[47],0.325 µM
same,TGI,[47],1.76 µM
same,GI50,[48],0.192 µM
same,TGI,[48],1.3 µM
same,GI50,[49],0.295 µM
same,TGI,[49],2.97 µM
same,GI50,[50],0.257 µM
same,TGI,[50],1.37 µM
same,GI50,[51],0.0686 µM
same,TGI,[51],1.43 µM
same,GI50,[52],0.205 µM
same,TGI,[52],1.64 µM
same,GI50,[53],0.299 µM
same,TGI,[53],3.16 µM
same,GI50,[54],0.541 µM
same,TGI,[54],4.14 µM
same,GI50,[55],0.308 µM
same,TGI,[55],1.33 µM
same,GI50,[56],0.343 µM
same,TGI,[56],1.8 µM
same,GI50,[57],0.197 µM
same,TGI,[57],0.747 µM
same,GI50,[58],0.278 µM
same,TGI,[58],2.27 µM
CCOC(=O)c1ccc(N=NN(C)C(=O)C(C)N)cc1 (stereo not given),TGI,[1],> 100 µM
same,TGI,[4],> 100 µM
same,TGI,[5],> 100 µM
same,TGI,[6],> 100 µM
same,TGI,[7],> 100 µM
same,TGI,[8],> 100 µM
same,TGI,[9],> 100 µM
same,TGI,[10],> 100 µM
same,TGI,[11],> 100 µM
same,TGI,[12],> 100 µM
same,TGI,[13],> 100 µM
same,TGI,[14],> 100 µM
same,TGI,[15],> 100 µM
same,TGI,[16],> 100 µM
same,TGI,[18],> 100 µM
same,TGI,[19],> 100 µM
same,TGI,[20],> 100 µM
same,TGI,[21],> 100 µM
same,TGI,[22],> 100 µM
same,TGI,[23],> 100 µM
same,TGI,[24],> 100 µM
same,TGI,[25],> 100 µM
same,TGI,[26],> 100 µM
same,TGI,[27],> 100 µM
same,TGI,[59],> 100 µM
same,TGI,[28],> 100 µM
same,TGI,[29],> 100 µM
same,TGI,[30],> 100 µM
same,TGI,[31],> 100 µM
same,TGI,[32],> 100 µM
same,TGI,[33],> 100 µM
same,TGI,[34],> 100 µM
same,TGI,[35],> 100 µM
same,TGI,[36],> 100 µM
same,TGI,[37],> 100 µM
same,TGI,[38],> 100 µM
same,TGI,[39],> 100 µM
same,TGI,[40],> 100 µM
same,TGI,[41],> 100 µM
same,TGI,[42],> 100 µM
same,TGI,[43],> 100 µM
same,TGI,[44],> 100 µM
same,TGI,[45],> 100 µM
same,TGI,[46],> 100 µM
same,TGI,[48],> 100 µM
same,TGI,[49],> 100 µM
same,TGI,[50],> 100 µM
same,TGI,[51],> 100 µM
same,TGI,[52],> 100 µM
same,TGI,[53],> 100 µM
same,TGI,[54],> 100 µM
same,TGI,[55],> 100 µM
same,TGI,[56],> 100 µM
same,TGI,[57],> 100 µM
same,TGI,[58],> 100 µM
COc1cccc2c1OC1c3ccccc3OCC1C2 (stereo not given),TGI,[1],> 100 µM
same,TGI,[2],> 100 µM
same,TGI,[3],> 100 µM
same,TGI,[5],> 100 µM
same,TGI,[6],> 100 µM
same,TGI,[7],> 100 µM
same,TGI,[8],> 100 µM
same,TGI,[9],> 100 µM
same,TGI,[10],> 100 µM
same,TGI,[11],> 100 µM
same,TGI,[12],> 100 µM
same,TGI,[13],> 100 µM
same,TGI,[15],> 100 µM
same,TGI,[18],> 100 µM
same,TGI,[19],> 100 µM
same,TGI,[20],> 100 µM
same,TGI,[21],> 100 µM
same,TGI,[22],> 100 µM
same,TGI,[23],> 100 µM
same,TGI,[24],> 100 µM
same,TGI,[25],> 100 µM
same,TGI,[26],> 100 µM
same,TGI,[27],> 100 µM
same,TGI,[59],> 100 µM
same,TGI,[28],> 100 µM
same,TGI,[29],> 100 µM
same,TGI,[30],> 100 µM
same,TGI,[33],> 100 µM
same,TGI,[34],> 100 µM
same,TGI,[36],> 100 µM
same,TGI,[37],> 100 µM
same,TGI,[38],> 100 µM
same,TGI,[39],> 100 µM
same,TGI,[41],> 100 µM
same,TGI,[42],> 100 µM
same,TGI,[43],> 100 µM
same,TGI,[44],> 100 µM
same,TGI,[46],> 100 µM
same,TGI,[47],> 100 µM
same,TGI,[48],> 100 µM
same,TGI,[50],20.6 µM
same,TGI,[51],> 100 µM
same,TGI,[52],> 100 µM
same,TGI,[53],> 100 µM
same,TGI,[54],> 100 µM
same,TGI,[55],> 100 µM
same,TGI,[56],> 100 µM
same,TGI,[57],> 100 µM
same,TGI,[58],> 100 µM
